Reference: patent US20230256095A1, “DYES FOR USE IN A METHOD OF TREATMENT OF VITREOUS OPACITY-RELATED DISEASES” (UNIVERSITEIT GENT, priority 2020, published 2023)

Tests used:
type I collagen fibers = target: T1, type I collagen fibers (Rattus norvegicus, UniProt P02454+P02466); assay: Photo-ablation of artificial floaters with nanosecond laser
T1 construct: type I collagen from the rat tail; purchased GIBCO; host or cells: rat tail (tissue-derived)
Procedure: Collagen fibers were prepared from type I collagen from the rat tail (GIBCO; concentration of 3 mg/ml) as described in Sauvage et al., 2019, ACS Nano, 13, 8401-8416. 5 ml of PBS was pipetted in a 15 ml falcon tube. 330 μL of the PBS solution was replaced by 330 μL collagen type I and the solution was vortexed. Sodium hydroxide (0.1 M) (VWR, Radnor, USA) was added to the acid solution of collagen to adjust pH to 7.4. The solution was vortexed again and placed for one hour in the incubator at 37° C. The final concentration of the collagen was 0.2 mg/ml.
First, dark-field microscopy imaging was performed to locate and align the nanosecond laser (Opolette HE 355 LD, OPOTEK Inc., CA, USA) on the artificial collagen fibers in the sample. Samples of either artificial or human opacities treated with TB, ICG and ICG nanoparticles were then illuminated with the laser (<7 ns). The wavelength of the laser light was 561 nm and the energy was set at ±800 μJ. A beam expander (#GBE05-A, Thorlabs) combined with iris diaphragm (#D37SZ, Thorlabs) were used to adjust the diameter of the laser beam to 150 μm (so that 800 μJ corresponded to a laser fluence of 4.5 J/cm^2). The laser pulse energy was monitored by an energy meter (J-25 MB-HE&LE, Energy Max-USB/RS sensors, Coherent) synchronized with the pulsed-laser. The set-up was made in such way to illuminate the sample shot by shot. Videos of the sample were made during illumination with NIS software. Same experiments were performed with human opacities Comparison Between Free ICG, PAH-ICG NPs and HSA-ICG NPs in Water and Bovine Vitreous.

[1] = In vivo safety evaluation of treated eyes; design: species or system rabbit
From the text: Before laser treatment, the rabbit's eyes were imaged by PAM and OCT (see section above). For laser treatment, anesthetized rabbits were kept on a custom-built stabilization platform. After acquiring the images and locating the opacities (collagen fibers) by OCT, areas in the eyes (4.5×4.5 mm^2) were illuminated with laser pulses (<7 ns; 1.9 J/cm^2) NT-242, Ekspla, Lithuania) of 800 nm (ICG) to destroy the collagen fibers; the step size of the scanning laser was 9 μm, the beam size equaled 20 μm. During the treatment, real-time OCT was active to monitor the position of the collagen fibers. The 4.5×4.5 mm^2 area was laser scanned several times (3-7 times) until the collagen fibers were completely destroyed. After the laser treatment, PAM and fundus images were performed to evaluate the potential damage of retinal vessels. Also, rabbit's vital signs were monitored and recorded until the animals fully recovered from anaesthesia.
Treated eyes were ophthalmologically evaluated immediately after the laser treatment and followed up for 1 month. Anterior segment structures such as the eyelids, iris, conjunctiva, cornea, anterior chamber and lens were comprehensively examined using slit lamp bio-microscopy (SL120, Carl Zeiss, Germany). In addition, posterior segment structures (i.e., the vitreous, optic nerve and retina) were assessed using a contact fundus lens (Volk Optical Inc, Mentor, Ohio, USA).

human vitreous opacities = assay: Photo-ablation of human vitreous opacities obtained after vitrectomy; settings: 0.5 mg/ml
collagen fibers [2] = target: T2, collagen fibers (Rattus norvegicus, UniProt P02454+P02466); assay: In vivo binding of intravitreally injected ICG to collagen fibers (PAM/OCT/fundus imaging); design: species or system rabbit
T2 construct: host or cells: exogenous fibres injected into the vitreous of New Zealand White rabbits
T2 sequence (P02454 152-1207 limits assumed): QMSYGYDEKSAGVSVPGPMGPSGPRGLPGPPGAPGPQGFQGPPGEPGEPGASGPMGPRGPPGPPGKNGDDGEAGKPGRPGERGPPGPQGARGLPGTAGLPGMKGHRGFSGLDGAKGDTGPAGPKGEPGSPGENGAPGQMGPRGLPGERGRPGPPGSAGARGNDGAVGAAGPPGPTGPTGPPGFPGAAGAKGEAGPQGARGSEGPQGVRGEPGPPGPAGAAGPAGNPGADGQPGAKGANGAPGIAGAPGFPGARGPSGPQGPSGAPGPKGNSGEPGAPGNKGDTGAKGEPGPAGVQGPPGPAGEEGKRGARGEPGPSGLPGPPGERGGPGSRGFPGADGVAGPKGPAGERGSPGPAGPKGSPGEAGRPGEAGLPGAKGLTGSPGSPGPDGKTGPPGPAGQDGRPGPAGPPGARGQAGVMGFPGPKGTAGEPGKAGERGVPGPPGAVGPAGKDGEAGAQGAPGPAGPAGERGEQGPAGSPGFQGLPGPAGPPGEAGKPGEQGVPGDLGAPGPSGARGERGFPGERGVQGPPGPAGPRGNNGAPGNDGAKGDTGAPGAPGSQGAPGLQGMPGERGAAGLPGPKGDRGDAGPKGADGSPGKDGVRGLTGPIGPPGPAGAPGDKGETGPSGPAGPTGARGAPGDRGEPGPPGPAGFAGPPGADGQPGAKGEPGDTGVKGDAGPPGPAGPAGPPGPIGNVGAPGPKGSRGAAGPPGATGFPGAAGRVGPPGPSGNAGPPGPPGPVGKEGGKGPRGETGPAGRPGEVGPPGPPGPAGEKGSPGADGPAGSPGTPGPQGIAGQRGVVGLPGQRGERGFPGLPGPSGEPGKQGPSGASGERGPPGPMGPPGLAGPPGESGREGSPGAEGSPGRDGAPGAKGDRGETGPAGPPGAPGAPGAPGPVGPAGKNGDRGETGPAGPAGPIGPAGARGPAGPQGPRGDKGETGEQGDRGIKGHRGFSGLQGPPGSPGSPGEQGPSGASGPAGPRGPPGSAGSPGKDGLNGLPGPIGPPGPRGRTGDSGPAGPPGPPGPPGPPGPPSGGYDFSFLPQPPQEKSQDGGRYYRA
T2 sequence (P02466 86-1125 limits assumed): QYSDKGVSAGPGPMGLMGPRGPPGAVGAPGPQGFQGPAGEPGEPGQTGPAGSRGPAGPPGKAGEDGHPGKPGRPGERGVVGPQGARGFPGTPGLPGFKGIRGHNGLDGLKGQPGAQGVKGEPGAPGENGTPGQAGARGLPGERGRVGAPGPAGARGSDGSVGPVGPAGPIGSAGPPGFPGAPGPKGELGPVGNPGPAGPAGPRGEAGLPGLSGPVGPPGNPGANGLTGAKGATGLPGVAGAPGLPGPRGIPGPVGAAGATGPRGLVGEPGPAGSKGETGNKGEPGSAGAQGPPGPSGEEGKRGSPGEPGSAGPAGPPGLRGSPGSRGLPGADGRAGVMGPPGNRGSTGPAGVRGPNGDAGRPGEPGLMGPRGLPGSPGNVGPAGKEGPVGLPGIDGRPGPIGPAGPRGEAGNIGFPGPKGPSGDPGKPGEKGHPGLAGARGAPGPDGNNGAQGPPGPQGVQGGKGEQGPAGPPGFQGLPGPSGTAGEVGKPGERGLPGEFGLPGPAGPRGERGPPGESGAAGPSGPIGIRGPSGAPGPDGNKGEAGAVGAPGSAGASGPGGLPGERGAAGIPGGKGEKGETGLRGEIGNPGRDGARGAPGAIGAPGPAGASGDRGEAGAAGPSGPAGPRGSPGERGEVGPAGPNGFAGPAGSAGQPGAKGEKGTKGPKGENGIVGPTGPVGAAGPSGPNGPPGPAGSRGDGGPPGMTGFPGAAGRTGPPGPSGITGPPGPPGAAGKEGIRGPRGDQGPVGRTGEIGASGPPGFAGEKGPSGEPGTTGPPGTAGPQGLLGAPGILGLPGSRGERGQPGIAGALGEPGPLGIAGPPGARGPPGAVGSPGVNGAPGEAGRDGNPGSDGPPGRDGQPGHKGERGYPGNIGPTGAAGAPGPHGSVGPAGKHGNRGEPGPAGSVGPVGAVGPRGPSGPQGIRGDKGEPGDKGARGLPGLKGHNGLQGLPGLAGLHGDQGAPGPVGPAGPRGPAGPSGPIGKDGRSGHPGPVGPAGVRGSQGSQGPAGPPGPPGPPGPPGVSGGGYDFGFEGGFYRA
From the text: A total of 24 New Zealand White rabbits (age 3-6 months; weight 2.45-3.15 kg; both genders) were used. The rabbits were randomly divided into 7 groups: a control group A treated with laser only (n=3), group B received an intravitreal (IVIT) injection of ICG (n=9), group C received an IVIT injection of ICG labeled collagen fibers (n=3), group D was IVIT injected with collagen fibers followed by an IVIT injection of ICG (n=3), group E was IVIT injected with HA-AuNPs labeled floaters (n=3), and group F was IVIT injected with floaters followed by an IVIT injection of HA-AuNPs (n=3). During the in vivo experiments, animal conditions such as mucous membrane color, heart rate, body heat, and respiratory rate were monitored every 15 minutes. […]
(§1) First, to visualize the retina of the rabbit eyes, a plastic contact lens was placed on the cornea. […] The position of the fibers was monitored by OCT so that the intravitreal injection of ICG could be performed close the area where the fibers were located. […]
The rabbits were monitored one minute after intravitreal injection of the collagen fibers and at day 4 post intravitreal injection of ICG. […] The rabbit eyes were assessed by color fundus photography, fluorescence imaging, optical coherence tomography (OCT) and photoacoustic microscopy (PAM), as discussed below. […]

[3] = tested on: immortalized human Müller cells (MIO-M1); assay: MTT toxicity assay on Müller cells; assay type: cell-based
Procedure: MIO-M1 cells were cultured in DMEM Glutamax medium (Thermo Fisher Scientific, Waltham, USA). The medium contained 10% foetal bovine serum (FBS) (Thermo Fisher Scientific, Waltham, USA), 100 IU/ml penicillin (Gibco®-Invitrogen life technologies, Walthan, USA), 100 μg/ml streptomycin (Gibco®-Invitrogen life technologies, Walthan, USA) and 2 mM L-Glutamin (Gibco®-Invitrogen life technologies, Walthan, USA). Before use, the medium was passed through a 0.2 μm PES membrane vacuum filter (VWR, Radnor, USA). The cells were plated in polystyrene cell culture flasks (surface=75 cm^2) (VWR, Radnor, USA) and placed in the incubator (37° C., 5% CO2) (Thermo Fisher Scientific, Waltham, USA) until confluence was reached (i.e. the cells forming a monolayer covering 80%-90% of the culture flask). The morphology was checked by microscopy (VWR, Radnor, USA). After reaching the confluence (more or less after 5 days) and checking the morphology, cells were split in new culture flasks. […]
To test the toxicity of free and nano-encapsulated ICG, we wanted to seed 7,000 Müller cells in each well of a 96-well plate (VWR, Radnor, USA). The cells were counted with a Bürker counting chamber (BRAND, Wertheim, Germany) to obtain the proper number of cells. […] The non-coloured cells were counted in 6 big squares (3 on each side of the chamber); each big square contained 0.1 μL mixture. […]

[4] = In vivo clearance of intravitreally injected ICG from the vitreous (fundus imaging); design: species or system rabbit
From the text: (§2) A total of 24 New Zealand White rabbits (age 3-6 months; weight 2.45-3.15 kg; both genders) were used. The rabbits were randomly divided into 7 groups: a control group A treated with laser only (n=3), group B received an intravitreal (IVIT) injection of ICG (n=9), group C received an IVIT injection of ICG labeled collagen fibers (n=3), group D was IVIT injected with collagen fibers followed by an IVIT injection of ICG (n=3), group E was IVIT injected with HA-AuNPs labeled floaters (n=3), and group F was IVIT injected with floaters followed by an IVIT injection of HA-AuNPs (n=3). During the in vivo experiments, animal conditions such as mucous membrane color, heart rate, body heat, and respiratory rate were monitored every 15 minutes. The animals were anesthetized by intramuscular injection of ketamine (40 mg/kg) and xylazine (5 mg/kg). A drop of tropicamide (1%) and phenylephrine hydrochloride (2.5%) was applied into the rabbit eyes to dilate their pupils at 15 min before the imaging procedures. For topical anaesthesia, a drop of topical tetracaine (0.5%) was used. To avoid corneal dehydration during the experiment, a lubricant solution (Systane, Alcon Inc., TX, USA) was added into the eye every minute using a syringe with plastic needle. To maintain the anaesthesia, a dose of ketamine (13 mg/kg) was injected every 45 min. The animal's body heat was maintained using a circulation heat blanket.
First, to visualize the retina of the rabbit eyes, a plastic contact lens was placed on the cornea. When the target location in the vitreous was selected under the microscope, the rabbits under anaesthesia were subsequently intravitreally injected. The intravitreal injections were performed using a 27 gauge needle. In one series of experiments 40 μL of ICG-fibers (which are collagen fibers treated with ICG) was injected; the concentration of collagen in the dispersions was 0.02 mg/mL. In another series of experiments, 40 μL of collagen fibers (0.02 mg/mL) were intravitreally injected. 5 days after the injection of the fibers, ICG (0.25-1.25 mg/ml) was injected in the vitreous (40 μl). The position of the fibers was monitored by OCT so that the intravitreal injection of ICG could be performed close the area where the fibers were located. Three days after the injection of ICG, laser treatment was performed.
The rabbits were monitored one minute after intravitreal injection of the collagen fibers and at day 4 post intravitreal injection of ICG. Rabbits intravitreally injected with ICG only were followed up for 14 days post injection. The rabbit eyes were assessed by color fundus photography, fluorescence imaging, optical coherence tomography (OCT) and photoacoustic microscopy (PAM), as discussed below. The rabbit's head and body were positioned in two different platforms to minimize breathing and other motion artifacts. The same scanning areas for PAM- and OCT-imaging were monitored by the fundus camera which was integrated in the OCT system. To detect the photoacoustic signal, the ultrasound transducer was placed in contact with the conjunctiva, allowing it to move freely in 3D while not applying any physical pressure on the rabbit eyes. […]
Color fundus photography was performed using a 50-degree color fundus photography system (Topcon 50EX, Topcon Corporation, Tokyo, Japan). […] Fluorescence imaging was done with the Topcon 50EX system using appropriate excitation and emission filters.

collagen fibers [5] = target: T2, collagen fibers; assay: In vivo laser photo-ablation of intravitreally injected collagen fibers; design: species or system rabbit
From the text: as §2
as §1, with “cornea. When the target location in the vitreous was selected under the microscope, the rabbits under anaesthesia were subsequently intravitreally injected. The intravitreal injections were performed using a 27 gauge needle.” for “cornea.”
Before laser treatment, the rabbit's eyes were imaged by PAM and OCT (see section above). […] Also, rabbit's vital signs were monitored and recorded until the animals fully recovered from anaesthesia.

[6] = eyes treated with laser with ICG

T1 sequence (P02454 152-1207 limits assumed): as the sequence (P02454 152-1207 limits assumed) above
T1 sequence (P02466 86-1125 limits assumed): as the sequence (P02466 86-1125 limits assumed) above

Q: With `Cc1cc(-c2ccc(/N=N/c3c(S(=O)(=O)O)cc4cc(S(=O)(=O)O)cc(N)c4c3O)c(C)c2)ccc1/N=N/c1c(S(=O)(=O)O)cc2cc(S(=O)(=O)O)cc(N)c2c1O` [free TB, Trypan Blue] as the compound, how does the “binding and destruction of type I collagen fibers” value (type I collagen fibers; 0.1 mg/ml as printed) read?
A: can bind and efficiently destroy type I collagen fibers

Q: What does the source list for `CC1(C)C(/C=C/C=C/C=C/C=C2\N(CCCCS(=O)(=O)O)c3ccc4ccccc4c3C2(C)C)=[N+](CCCCS(=O)(=O)[O-])c2ccc3ccccc3c21` [ICG, Indocyanine Green]?
A: anterior segment 30 days post treatment ([1]; 30 days post treatment): normal corneas, eyelids, anterior chamber, conjunctiva and transparent lenses; anterior segment, visual inspection [1, 6]: normal corneas, eyelids, anterior chamber, conjunctiva, and transparent lens; posterior segment, color fundus imaging [1, 6]: no significant changes or injuries in the posterior segment structure; retinal layers, B-scan OCT ([1]; post laser treatment): did not indicate structural disorganization in the retinal layers; destruction of human vitreous opacity (human vitreous opacities; 561 nm, 4.5 J/cm^2): the vitreous opacity could be destroyed; destruction of human vitreous opacity (human vitreous opacities; 800 nm, 1.1 J/cm^2): the vitreous opacity could be destroyed; binding and destruction of type I collagen fibers (type I collagen fibers; 0.5 mg/ml): can bind and efficiently destroy type I collagen fibers; location of VNBs during laser pulse on fiber (type I collagen fibers; nanosecond laser 4.5 J/cm^2): VNBs could be observed at the level of the fiber; reaching and binding of collagen fibers in vivo (collagen fibers [2]; IVIT 1.25 mg/mL, 5 days after fiber injection): could reach and bind the collagen fibers; lowest concentration at which binding to collagen fibers was still observed in vivo (collagen fibers [2]; intravitreal injection): 0.625 mg/mL; toxicity on immortalized human retinal cells (MIO-M1) ([3]; 0.5 mg/ml): no clear toxicity; toxicity / metabolic activity (MTT) ([3]; 24 hours, 0.1-1 mg/ml): rather acceptable toxicity up to a concentration of 0.5 mg/ml; visibility of ICG 7 days after injection ([4]; 0.25 mg/ml IVIT): no longer visible at the level of the collagen fibers; visibility of ICG 7 days after injection ([4]; 0.625 mg/ml IVIT): remained only visible at the level of the collagen fibers; visibility of ICG 7 days after injection ([4]; 1.25 mg/ml IVIT): remained only visible at the level of the collagen fibers; visibility of 'free' ICG (not bound to collagen) in vitreous cavity ([4]; 3 days post injection, all concentrations): no longer visible in the vitreous cavity; visibility of injected ICG in vitreous ([4]; after one day, 0.25, 0.625 and 1.25 mg/ml IVIT): most of the injected ICG was no longer visible; destruction of collagen fibers in vivo (collagen fibers [5]; IVIT 0.625 mg/mL, 800 nm, 1.9 J/cm^2): complete destruction of the collagen fibers; laser pulses (scans) sufficient to completely destroy injected collagen fibers (collagen fibers [5]; IVIT 1.25 mg/mL, 800 nm, 1.9 J/cm^2, 3 days after ICG): 5 laser pulses; pulses sufficient to destroy the IVIT injected fibers (collagen fibers [5]; all rabbits tested (n=3)): 3.3+/−1.5 pulses
